Experimental data from ChEMBL document CHEMBL3046319, “PCR-RFLP detection of the E198A mutation conferring resistance to benzimidazoles in field isolates of Monilinia laxa from Greece” (Crop Prot, 2012).
≈ marks a conversion by molar mass, not a printed value. Calls of active or inactive are those of the source. No cut-off for these calls is given here.

Assays:
Monilinia laxa [1] = assay: Fungicidal activity against Monilinia laxa isolate MLK4A assessed as reduction in mycelial growth rate at 1 to 10 ug/ml at 31 degC after 5 days; format: functional, organism-based
Monilinia laxa [2] = assay: Fungicidal activity against Monilinia laxa isolate MLG6 assessed as reduction in mycelial growth rate at 1 to 10 ug/ml at 31 degC after 5 days; format: functional, organism-based
Monilinia laxa [3] = assay: Fungicidal activity against Monilinia laxa isolate MLG3 assessed as reduction in mycelial growth rate at 1 to 10 ug/ml at 31 degC after 5 days; format: functional, organism-based
Monilinia laxa [4] = assay: Fungicidal activity against Monilinia laxa isolate MLG1 assessed as reduction in mycelial growth rate at 1 to 10 ug/ml at 31 degC after 5 days; format: functional, organism-based
Monilinia laxa [5] = assay: Fungicidal activity against Monilinia laxa isolate MLC6 assessed as reduction in mycelial growth rate at 1 to 10 ug/ml at 31 degC after 5 days; format: functional, organism-based
Monilinia laxa [6] = assay: Fungicidal activity against Monilinia laxa isolate MLC4 assessed as reduction in mycelial growth rate at 1 to 10 ug/ml at 31 degC after 5 days; format: functional, organism-based
Monilinia laxa [7] = assay: Fungicidal activity against Monilinia laxa isolate MLC2 assessed as reduction in mycelial growth rate at 1 to 10 ug/ml at 31 degC after 5 days; format: functional, organism-based
Monilinia laxa [8] = assay: Fungicidal activity against Monilinia laxa isolate MLBO8 assessed as reduction in mycelial growth rate at 1 to 10 ug/ml at 31 degC after 5 days; format: functional, organism-based
Monilinia laxa [9] = assay: Fungicidal activity against Monilinia laxa isolate MLK12 assessed as mean number of conidia produced in the colony at 25 degC after 12 days by haemocytometer; format: functional
Monilinia laxa [10] = assay: Fungicidal activity against Monilinia laxa isolate MLP2 assessed as mean number of conidia produced in the colony at 25 degC after 12 days by haemocytometer; format: functional
Monilinia laxa [11] = assay: Fungicidal activity against Monilinia laxa isolate MLBO5 assessed as mean number of conidia produced in the colony at 25 degC after 12 days by haemocytometer; format: functional
Monilinia laxa [12] = assay: Fungicidal activity against Monilinia laxa isolate MLX1 assessed as mean mycelial colony diameter at 25 degC after 4 days; format: functional
Monilinia laxa [13] = assay: Fungicidal activity against Monilinia laxa isolate MLK12 assessed as mean mycelial colony diameter at 25 degC after 4 days; format: functional
Monilinia laxa [14] = assay: Fungicidal activity against Monilinia laxa isolate MLBO2 assessed as mean mycelial colony diameter at 25 degC after 4 days; format: functional
Monilinia laxa [15] = assay: Fungicidal activity against Monilinia laxa isolate MLX5 assessed as reduction in mycelial growth rate at 1 to 10 ug/ml at 28 degC after 8 days; format: functional, organism-based
Monilinia laxa [16] = assay: Fungicidal activity against Monilinia laxa isolate MLX3 assessed as reduction in mycelial growth rate at 1 to 10 ug/ml at 28 degC after 8 days; format: functional, organism-based
Monilinia laxa [17] = assay: Fungicidal activity against Monilinia laxa isolate MLP4 assessed as reduction in mycelial growth rate at 1 to 10 ug/ml at 28 degC after 8 days; format: functional, organism-based
Monilinia laxa [18] = assay: Fungicidal activity against Monilinia laxa isolate MLG3 assessed as reduction in mycelial growth rate at 25 degC after 4 days; format: functional, organism-based; details: isolate MLG3, 96 h
Monilinia laxa [19] = assay: Fungicidal activity against Monilinia laxa isolate MLC3 assessed as reduction in mycelial growth rate at 1 to 10 ug/ml at 28 degC after 8 days; format: functional, organism-based
Monilinia laxa [20] = assay: Fungicidal activity against Monilinia laxa isolate MLB1 assessed as reduction in mycelial growth rate at 1 to 10 ug/ml at 28 degC after 8 days; format: functional, organism-based
Monilinia laxa [21] = assay: Fungicidal activity against Monilinia laxa isolate MLX1 assessed as mycelial growth at 1 ug/ml at 25 degC after 4 days; format: functional
Monilinia laxa [22] = assay: Fungicidal activity against Monilinia laxa isolate MLP4 assessed as mycelial growth at 1 ug/ml at 25 degC after 4 days; format: functional
Monilinia laxa [23] = assay: Fungicidal activity against Monilinia laxa isolate MLBO8 assessed as reduction in mycelial growth rate at 25 degC after 4 days; format: functional, organism-based; details: isolate MLBO8, 96 h
Monilinia laxa [24] = assay: Fungicidal activity against Monilinia laxa isolate MLBO4 assessed as reduction in mycelial growth rate at 25 degC after 4 days; format: functional, organism-based; details: isolate MLBO4, 96 h
Monilinia laxa [25] = assay: Fungicidal activity against Monilinia laxa isolate MLNS2 assessed as reduction in mycelial growth rate at 1 to 10 ug/ml at 25 to 28 degC; format: functional, organism-based
Monilinia laxa [26] = assay: Fungicidal activity against Monilinia laxa isolate MLP7 assessed as reduction in mycelial growth rate at 1 to 10 ug/ml at 25 to 28 degC; format: functional, organism-based
Monilinia laxa [27] = assay: Fungicidal activity against Monilinia laxa isolate MLP4 assessed as reduction in mycelial growth rate at 1 to 10 ug/ml at 25 to 28 degC; format: functional, organism-based
Monilinia laxa [28] = assay: Fungicidal activity against Monilinia laxa isolate MLK4 assessed as reduction in mycelial growth rate at 1 to 10 ug/ml at 25 to 28 degC; format: functional, organism-based
Monilinia laxa [29] = assay: Fungicidal activity against Monilinia laxa isolate MLBO2 assessed as mycelial growth at 1 ug/ml at 25 degC after 4 days; format: functional
Monilinia laxa [30] = assay: Fungicidal activity against Monilinia laxa isolate KX3 assessed as reduction in mycelial growth rate at 1 to 10 ug/ml at 31 degC after 5 days; format: functional, organism-based
Monilinia laxa [31] = assay: Fungicidal activity against Monilinia laxa isolate KX2 assessed as reduction in mycelial growth rate at 1 to 10 ug/ml at 31 degC after 5 days; format: functional, organism-based
Monilinia laxa [32] = assay: Fungicidal activity against Monilinia laxa isolate KX1 assessed as reduction in mycelial growth rate at 1 to 10 ug/ml at 31 degC after 5 days; format: functional, organism-based
Monilinia laxa [33] = assay: Fungicidal activity against Monilinia laxa isolate MLKS1 assessed as reduction in mycelial growth rate at 25 degC after 4 days; format: functional, organism-based; details: isolate MLKS1, 96 h
Monilinia laxa [34] = assay: Fungicidal activity against Monilinia laxa isolate MLX5 assessed as mycelial growth at 1 ug/ml at 25 degC after 4 days; format: functional
Monilinia laxa [35] = assay: Fungicidal activity against Monilinia laxa isolate MLG1 assessed as mean mycelial colony diameter at 25 degC after 4 days; format: functional
Monilinia laxa [36] = assay: Fungicidal activity against Monilinia laxa isolate MLNS1 assessed as reduction in mycelial growth rate at 1 to 10 ug/ml at 31 degC after 5 days; format: functional, organism-based
Monilinia laxa [37] = assay: Fungicidal activity against Monilinia laxa isolate MLX1 assessed as reduction in mycelial growth rate at 1 to 10 ug/ml at 31 degC after 5 days; format: functional, organism-based
Monilinia laxa [38] = assay: Fungicidal activity against Monilinia laxa isolate KX2 assessed as reduction in mycelial growth rate at 25 degC after 4 days; format: functional, organism-based; details: isolate KX2, 96 h
Monilinia laxa [39] = assay: Fungicidal activity against Monilinia laxa isolate MLX5 assessed as reduction in mycelial growth rate at 25 degC after 4 days; format: functional, organism-based; details: isolate MLX5, 96 h
Monilinia laxa [40] = assay: Fungicidal activity against Monilinia laxa isolate MLX3 assessed as reduction in mycelial growth rate at 25 degC after 4 days; format: functional, organism-based; details: isolate MLX3, 96 h
Monilinia laxa [41] = assay: Fungicidal activity against Monilinia laxa isolate MLK24 assessed as reduction in mycelial growth rate at 25 degC after 4 days; format: functional, organism-based; details: isolate MLK24, 96 h
Monilinia laxa [42] = assay: Fungicidal activity against Monilinia laxa isolate MLK9 assessed as reduction in mycelial growth rate at 25 degC after 4 days; format: functional, organism-based; details: isolate MLK9, 96 h
Monilinia laxa [43] = assay: Fungicidal activity against Monilinia laxa isolate MLK8 assessed as reduction in mycelial growth rate at 25 degC after 4 days; format: functional, organism-based; details: isolate MLK8, 96 h

In the case of COC(=O)Nc1nc2ccccc2[nH]1 [CARBENDAZIM], the inhibition (Monilinia laxa [1]) is reported as “Active”, the inhibition (Monilinia laxa [2]) is reported as “Active” and the inhibition (Monilinia laxa [3]) is reported as “Active”. For the same compound, the inhibition (Monilinia laxa [4]) was “Active”, the inhibition (Monilinia laxa [5]) was “Active” and the inhibition (Monilinia laxa [6]) was “Active”. For the same compound, the inhibition (Monilinia laxa [7]) was “Active”, the inhibition (Monilinia laxa [8]) was “Active” and the Activity (Monilinia laxa [9]) was 4.7 /cm2. For the same compound, the Activity (Monilinia laxa [10]) was 4.15 /cm2, the Activity (Monilinia laxa [11]) was 3.92 /cm2 and the Activity (Monilinia laxa [12]) was 31.25 mm. The Activity (Monilinia laxa [13]) was 31 mm, the Activity (Monilinia laxa [14]) was 30.2 mm and the inhibition (Monilinia laxa [15]) was “inactive”. The inhibition (Monilinia laxa [16]) was “inactive”, the inhibition (Monilinia laxa [17]) was “inactive” and the EC50 (Monilinia laxa [18]) was 0.08 mg/L (≈ 0.418 µM). The inhibition (Monilinia laxa [19]) was “inactive”, the inhibition (Monilinia laxa [20]) was “inactive” and the Activity (Monilinia laxa [21]) was 100%. It also gave an Activity (Monilinia laxa [22]) of 94.44%, an EC50 (Monilinia laxa [23]) of 0.06 mg/L (≈ 0.314 µM) and an EC50 (Monilinia laxa [24]) of 0.05 mg/L (≈ 0.262 µM). For the same compound, the inhibition (Monilinia laxa [25]) was “inactive”, the inhibition (Monilinia laxa [26]) was “inactive” and the inhibition (Monilinia laxa [27]) was “inactive”. The inhibition (Monilinia laxa [28]) was “inactive”, the Activity (Monilinia laxa [29]) was 0% and the inhibition (Monilinia laxa [30]) was “Active”. The inhibition (Monilinia laxa [31]) was “Active”, the inhibition (Monilinia laxa [32]) was “Active” and the EC50 (Monilinia laxa [33]) was 0.11 mg/L (≈ 0.575 µM). For the same compound, the Activity (Monilinia laxa [34]) was 0%, the Activity (Monilinia laxa [35]) was 25.55 mm and the inhibition (Monilinia laxa [36]) was “Active”. For the same compound, the inhibition (Monilinia laxa [37]) was “Active”, the EC50 (Monilinia laxa [38]) was 0.08 mg/L (≈ 0.418 µM) and the EC50 (Monilinia laxa [39]) was greater than 50 mg/L. It also gave an EC50 (Monilinia laxa [40]) greater than 50 mg/L, an EC50 (Monilinia laxa [41]) of 0.02 mg/L (≈ 0.105 µM) and an EC50 (Monilinia laxa [42]) of 0.08 mg/L (≈ 0.418 µM). The EC50 (Monilinia laxa [43]) was 0.09 mg/L (≈ 0.471 µM).
